Experimental data: article PMC5299588, “Lumican Peptides: Rational Design Targeting ALK5/TGFBRI” (Scientific Reports, 2017)
“Also recorded” adds a separate entry of the source. No end group written: not given here.

Tests used:
corneal epithelium [1] = test: In vivo corneal epithelium debridement wound healing in Lum−/− mice, peptide eye drops; parameters: species or system C57BL/6 genetic background; conditions: drops 0.3 μM every 15 min for 5 h
Source text: Lum null (Lum^−/−) mice were also used to examine the efficacy of LumC peptides in promoting epithelium sheet migration following debridement wound (Supplemental Fig. S2).
(§1) Use of experimental mice is in compliance to the ARVO statement for the use of animals in vision research and all procedures are approved by IACUC of the University of Cincinnati. Lum^−/− mice in C57BL/6 genetic background aged 7–8 weeks were used in this study. Mice were anesthetized with intraperitoneal injections of a combination of ketamine (10 mg/kg; Henry Shein) and xylazine (1 mg/kg; Henry Shein) prior to the surgery, and a drop of proparacaine hydrochloride 0.5% (Alcon) was applied to the cornea to deliver local anesthesia before injury. Briefly, a 2 mm diameter trephine was used to demarcate the central epithelial region of the eye and the epithelium within the demarcated region was mechanically removed using an Algerbrush II (Alger Equipment Co., Inc., Lago Vista, TX) while viewing the cornea under a stereomicroscope (Stemi SC II stereomicroscope with epi-fluorescence attachment, Carl ZEISS). Eight mice per group were treated and the experiments were repeated at least two times. Each mouse was topically treated with one drop peptide solution (10 μl) at concentration of 0.3 μM or 10 μL PBS every 15 min for 5 h after wounding. After 5 h, mice were sacrificed. The eyes were excised and fixed in 4% paraformaldehyde in PB (0.1 M phosphate buffer, pH 7.4. whole mount corneas were stained with phalloidin and DAPI and image with a Zeiss Apo Tome microscope (Observer Z1). The migration of epithelium sheet was determined as previously described. In brief, migrated corneal epithelium was measured on whole mount samples in 5 different locations equally distributed around the entire circumference of the wound. The number of animals in each experimental group is on the bars in the bar chart. The statistical analyses as well as symbols are shown in the graph legend. PBS treated Lum^−/− mice were used as negative controls, in which the epithelium sheet migrated less than 50 μm in 5 h (Supplemental Fig. 2 for representative plots). Four Z-staged images were collected from each corneas, the epithelium migration was determined by the distance of migration of epithelium front to the initial injured line as previously described.

ALK5 [2] = molecular target: T1, ALK5 (Homo sapiens, UniProt P36897); test: kcat/Km of peptides and loss of binding outside EVTLN region; conditions: method not described
T1 sequence (P36897 34-503): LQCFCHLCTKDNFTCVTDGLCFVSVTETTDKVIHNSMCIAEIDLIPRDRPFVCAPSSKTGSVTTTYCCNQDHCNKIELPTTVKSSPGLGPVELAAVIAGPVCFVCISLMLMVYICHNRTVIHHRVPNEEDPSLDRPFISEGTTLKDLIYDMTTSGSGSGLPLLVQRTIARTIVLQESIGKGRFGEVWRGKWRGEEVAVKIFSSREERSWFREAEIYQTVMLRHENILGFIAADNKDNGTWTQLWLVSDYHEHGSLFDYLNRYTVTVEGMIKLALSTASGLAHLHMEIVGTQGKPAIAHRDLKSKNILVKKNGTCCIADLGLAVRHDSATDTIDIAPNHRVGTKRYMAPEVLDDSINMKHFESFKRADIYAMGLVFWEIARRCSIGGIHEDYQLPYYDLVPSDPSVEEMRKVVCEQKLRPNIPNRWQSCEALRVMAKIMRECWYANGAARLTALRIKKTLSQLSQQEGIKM

corneal epithelium [3] = test: In vivo corneal epithelium debridement wound healing in mice, peptide eye drops; parameters: species or system mouse; conditions: for promotion of corneal epithelium wound healing: debridement wound, eye drops 0.3 μM every 15 min for 5 h
Procedure: To confirm peptide action promoting corneal epithelium wound healing in vivo, mice were subjected to a 2 mm with corneal epithelium debridement. The injured corneas were treated with 10 μl eye drops lumican peptides (0.3 μM) every 15 min for 5 h as previously described. Migration distance was measured between the original wound edge and the wound front. In Lumikine (LumC13C-A) treated corneas, the epithelium sheet moved ∼144 μm. […] The average epithelium migration (μm) and standard deviation were calculated from n corneas of each of two separate experiments.
as §1

ALK5 [4] = molecular target: T1, ALK5; test: Binding affinity (Kd) of designed peptide; conditions: method not described; highest affinity in all designed peptides
prostate cancer cell = conditions: cited from earlier work
Source text: This could be of particular interest in conditions where patients display delayed wound healing, such as diabetes, which culminates in an increased risk of inflammation and scarring. The significance of synthesizing lumican peptides that mediate TGFbRI signaling also goes beyond promoting skin and corneal wound healing.

ALK5 [5] = molecular target: T1, ALK5; conditions: cited from earlier work
Source text: Proteoglycans (PGs) are complex polymers composed of a core protein to which one or more glycosaminoglycan (GAGs) chains are covalently attached. They play a central role in physiology and disease[1][2][3][4][5][6]: modulating cell metabolism, mediating cell-cell trafficking, providing support for connective tissue and regulating of a wide range of effectors at both systemic and cellular levels. Small leucine rich proteoglycans (SLRPs) are a family of proteoglycans with small core proteins (~40 Kd) that contain hyper variable glycosylation sites with multivalent binding abilities. […] In this present study, we have accessed the binding of rationally designed LumC peptides with a related scoring approach, MM-GBSA, after docking and molecular dynamics simulations. In this method, docking scores are used to define initial binding sites, and more expensive and rigorous methods such as molecular dynamics (MD) simulation and binding free ...

[6] = Mass spectrometry of LumC13 in solution (dimerization); assay type: physicochemical; conditions: peptide in solution

## IKHLRLDGEVTLN [Hybrid 1/3, hybrid peptide …]
Corneal epithelium [1]
  promotion of epithelium wound healing / migration: little effect promoting wound healing

## IKHLRLDGNRISE [LumC33ΔC20, Lumican peptide …; control peptide]
ALK5 [2]
  kcat/Km: < 100 M⁻¹ s⁻¹
Corneal epithelium [3]
  promotion of corneal epithelium wound healing: did not promote epithelium wound healing
Corneal epithelium [1]
  promotion of epithelium wound healing / migration: little effect promoting wound healing

## LPPDMYECEVTLN [Hybrid 2/3]
ALK5 [4]
  Kd: 28.7 ± 3.9 µM

## LPPDMYECLRVAN [LumC18ΔC5, Lumican peptide …]
Corneal epithelium [1]
  promotion of epithelium wound healing / migration: little effect promoting wound healing

## Lumican: class II SLRP member, one of the major proteoglycans in the corneal stroma
Prostate cancer cell
  prostate cancer cell migration: inhibits prostate cancer cell migration
ALK5 [5]
  wound healing via C-terminal domain / TGFβRI interaction: promotes wound healing via its C-terminal domain due to its interaction with TGFβRI (ALK5)

## YEALRVANEVTLN [LumC13C-A, Lumican peptide … (Lumikine)]
Corneal epithelium [3]; 2 mm debridement, 10 μl eye drops 0.3 μM every 15 min for 5 h, between original wound edge and wound front
  epithelium migration distance: ~144 μm
Corneal epithelium [3]
  promotion of corneal epithelium wound healing: increased ability to promote wound healing
Corneal epithelium [1]
  promotion of epithelium wound healing / migration: promoted wound healing of corneal epithelium debridement of Lum^−/− mice to the same extent as injured wild type mice; also recorded: higher pharmaceutical activity of LumC13C-A compared to LumC13; also recorded: significantly promoted epithelium wound healing
ALK5 [5]; synthetic LumC13-terminal peptide YEALRVANEVTLN
  binding to ALK5 to promote wound healing: binding ALK5 to promote wound healing

## YECLRVANEVTLN [LumC13, peptide designed from the 13 C-terminal amino acids of lumican, …]
ALK5 [2]
  kcat/Km: 1e+06 ± 4000 M⁻¹ s⁻¹
Corneal epithelium [3]
  promotion of corneal epithelium wound healing: increased ability to promote wound healing
Corneal epithelium [3]; in vitro and in vivo wound healing assays
  promotion of epithelial cell migration (words, conclusion): essential to promote epithelial cell migration to the same extent as lumican
Corneal epithelium [1]
  promotion of epithelium wound healing / migration: moderately increased activity in promoting wound healing when compared to LumC13C-A
[6]
  dimerization in solution via disulfide bond formation: dimerization of the LumC13 peptides in solution via disulfide bond formation of cysteine residue, which reduces the activity of dimerized LumC13
